Reference: PubChem BioAssay (NCI)
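Following 48 hours of exposure in 96-well plates, responses at five concentrations were used to interpolate endpoints linearly. GI50 marks 50% less growth. The concentration for full growth arrest is given as TGI.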

Assays:
Assay in all cases: inhibition of tumour cell growth, NCI panel, 48 h
MOLT-4 leukemia = system: MOLT-4 leukemia
MDA-MB-231 breast = system: MDA-MB-231 breast
OVCAR-5 ovarian = system: OVCAR-5 ovarian
SK-OV-3 ovarian = system: SK-OV-3 ovarian
A498 renal = system: A498 renal
K-562 leukemia = system: K-562 leukemia
U251 CNS = system: U251 CNS
RPMI-8226 leukemia = system: RPMI-8226 leukemia
SF-295 CNS = system: SF-295 CNS
NCI-H23 lung = system: NCI-H23 lung

| Structure (SMILES) | GI50 (MOLT-4 leukemia) | TGI (MOLT-4 leukemia) | GI50 (MDA-MB-231 breast) | TGI (MDA-MB-231 breast) | GI50 (OVCAR-5 ovarian) | TGI (OVCAR-5 ovarian) | GI50 (SK-OV-3 ovarian) | TGI (SK-OV-3 ovarian) | GI50 (A498 renal) | TGI (A498 renal) | GI50 (K-562 leukemia) | TGI (K-562 leukemia) | GI50 (U251 CNS) | TGI (U251 CNS) | GI50 (RPMI-8226 leukemia) | TGI (RPMI-8226 leukemia) | GI50 (SF-295 CNS) | TGI (SF-295 CNS) | GI50 (NCI-H23 lung) | TGI (NCI-H23 lung) |
| --- | --- | --- | --- | --- | --- | --- | --- | --- | --- | --- | --- | --- | --- | --- | --- | --- | --- | --- | --- | --- |
| CN(C)CC1CCn2c(c(C3=C(c4cn(C)c5ccccc45)C(=O)NC3=O)c3ccccc32)C1 (stereo not drawn) | 4.74 µM | 13.9 µM | 3.42 µM | 7.56 µM | 4.61 µM | 12.8 µM | 4.62 µM | 10.5 µM | 4.47 µM | 9.22 µM | 4.97 µM | 10.5 µM | 3.95 µM | 7.64 µM | 4.89 µM | 11 µM | 4.46 µM | 9.06 µM | 4.71 µM | 11.3 µM |
| CN(CCC(=O)O)S(=O)(=O)c1ccccc1 | – | > 100 µM | – | > 100 µM | – | > 100 µM | – | > 100 µM | – | > 100 µM | – | > 100 µM | – | > 100 µM | – | > 100 µM | – | > 100 µM | – | > 100 µM |
| CC(=O)OCC1OC(S[As](C)C)C(OC(C)=O)C1OC(C)=O (stereo not drawn) | 0.177 µM | 0.765 µM | 0.404 µM | 2.34 µM | 0.481 µM | 2.17 µM | 1.14 µM | 7.71 µM | 0.432 µM | 3.06 µM | 0.0721 µM | 0.618 µM | 0.546 µM | 2.72 µM | – | 0.126 µM | 2.06 µM | 7.33 µM | 0.551 µM | 3.63 µM |
| COc1cccc2c1c1nc3cc(C)c(C)cc3nc1n2CCN(C)C | 0.498 µM | – | 1.87 µM | 9.52 µM | 2.4 µM | 9.48 µM | 2.02 µM | 12.2 µM | 0.533 µM | 1.9 µM | 0.982 µM | 9.12 µM | 2.21 µM | 11.7 µM | 1.16 µM | 4.29 µM | 2.17 µM | 7.62 µM | 1.66 µM | 5.57 µM |
